From patent EP0134485A2, “5-Cyclopropyl-5,8-dihydro-8-oxo-1,3-dioxolo-(4,5-g) quinoline-7-carboxylic acid, process for its preparation and bactericidal agent containing it” (BAYER AG, priority 1983, dated 1985) come the findings set out here.

Experiment in all cases: Agar dilution test (MIC), Isosensitest medium
Common to all, as to type: cell-based
Background: In agar dilution, organisms are placed on agar that contains the substance at set levels.

For one assay, the system named is E. coli 455/7. Conditions: Escherichia coli, strain E. coli 455/7, Denley multipoint inoculator, read-out: MHK. An excerpt:
(§1) In der nachstehenden Tabelle sind die MHK-Werte der erfindungsgemäßen Verbindung angegeben.

For another assay, the system named is Klebsiella 6179. Conditions: strain Klebsiella 6179, Denley multipoint inoculator, read-out: MHK.
From the text: as §1

The next assay relates to Proteus 8175. The following applies: strain Proteus 8175, Denley multipoint inoculator, read-out: MHK.
From the text: as §1

Another assay deals with Proteus mir. 8223. Conditions: strain Proteus mir. 8223, Denley multipoint inoculator, read-out: MHK.
From the text: as §1

The test system of the next assay is Pseudom. W. Conditions: strain Pseudom. W., Denley multipoint inoculator, read-out: MHK.
From the text: as §1

The test system of another assay is Serratia 16040. The following applies: strain Serratia 16040, Denley multipoint inoculator, read-out: MHK.
From the text: as §1

Another assay relates to Staph. aur. 133. Conditions: strain Staph. aur. 133, Denley multipoint inoculator, read-out: MHK.
From the text: as §1

In the next assay the test system is Streptococc. faec. 9790. The following applies: strain Streptococc. faec. 9790, Denley multipoint inoculator, read-out: MHK.
From the text: as §1

Molecules are shown by their SMILES. In brackets after ≈: the same amount, converted by molar mass.

On to `O=C(O)c1cn(C2CC2)c2cc3c(cc2c1=O)OCO3` [I, 5-Cyclopropyl-5,8-dihydro-8-oxo-1,3-dioxolo[4,5-g]chinolin-7-carbonsäure], for which the MIC in the assay with E. coli 455/7 worked out at 16 µg/mL (≈ 58.6 µM); in the assay on Klebsiella 6179, 0.06 µg/mL (≈ 0.22 µM); in the assay on Proteus 8175, 0.03 µg/mL (≈ 0.11 µM); in the assay with Proteus mir. 8223 it was 8 µg/mL (≈ 29.3 µM); in the assay on Pseudom. W., 4 µg/mL (≈ 14.6 µM); in the assay on Serratia 16040, 4 µg/mL (≈ 14.6 µM). Further, the figures for the MIC in the assay with Staph. aur. 133 and with Streptococc. faec. 9790 were 0.25 µg/mL (≈ 0.915 µM) and 8 µg/mL (≈ 29.3 µM), respectively.
